Measurements reported in US20230132973A1, “DIHYDRO-SPIRO[INDOLINE-3:1'-iSOQUINOLIN]-2-ONES AS ANTIMALARIAL AGENTS” (The University of Buea, priority 2020, published 2023).
“Also recorded” adds a separate entry of the source. Where two headings read alike, the source gives them in different places.

What was measured:
[1] = system: hemoglobin metabolism in P. falciparum ring and trophozoite stage parasites; assay: Effect on hemoglobin degradation (intraparasitic hemoglobin content); format: cell-based, Plasmodium falciparum; settings: 10 μM, 24 h, relative to E64-treated cultures; listed as (±)-moxiquindole
Protocol: Owing to the fact that the DSIIQs are constructed from the THIQ pharmacophore of naphthylisoquinolines, which appear to target proteases involved in hemoglobin degradation, we assessed the effect of this DSIIQ on hemoglobin metabolism. Briefly, tightly synchronized ring and trophozoite stage parasites were treated with test compounds for 24 h followed by parasite isolation and quantification of the intraparasitic hemoglobin contents.
To investigate drug effects on hemoglobin degradation, early ring and mid-trophozoite stage parasites (1.5% hematocrit, 5% parasitemia) were co-cultured with the test compounds or experimental controls (0.1% DMSO, chloroquine, artemisinin NITD609 and E64) at a final concentration of 10 μM. The cultures were incubated at 37° C. and 5% CO2 for 24 h. Following incubation, inhibitors were removed by centrifugation at 1800 rpm for 5 min. The pellets were washed in an equal volume of 1×PBS and re-suspended in same volume of 0.1% saponin (in 1×PBS) for 3 min. Isolated parasites were pelleted at 2500 rpm for 5 min and washed twice in an equal volume of 1×PBS. The resulting parasite pellets were permeabilized by treatment in 20 μL of 1% Triton X-100 (in 1×PBS) for 5 min. Intraparasitic hemoglobin content was measured at 550 nm using a Nanodrop spectrophotometer, and folds increase in intra-parasite hemoglobin content was calculated relative to the E64-treated controls.

[2] = system: CQ-sensitive 3D7 strain of P. falciparum; assay: SYBR green I-based parasite growth inhibition assay, 3D7 strain; format: cell-based, Plasmodium falciparum; settings: for EC50: 72 h, read-out: EC50
[3] = system: Normal African Green Monkey Kidney Epithelial (Vero) cells; assay: MTT cell proliferation (cytotoxicity) assay, Vero cells; format: cell-based
Protocol: By principle, the soluble MTT is reduced to an insoluble colored formazan product by mitochondrial succinate dehydrogenase in viable cells. Normal African Green Monkey Kidney Epithelial (Vero) and the Human Liposarcoma (SW872) cells were maintained in MEM supplemented with 10% FBS, 1% Glutamine and 1% penicillin-streptomycin. Confluent cells were trypsinized and seeded at a density of 2500 cells/well (total volume 90 μL) in 96-well plates and incubated for 24 h prior to drug treatment. Two-fold serial dilutions of the compounds (100-0.0488 μM) were added to the plates and incubated under humidified conditions at 37° C. for 48 h. Absorbance of the formed formazan product was measured at 550 nm wavelength using a SUNRISE microtiter plate reader. […] Selectivity indices (SI=CC50/EC50) were calculated as an indication of toxicity relative to the observed antiplasmodial activity.

[4] = system: multidrug resistant strain Dd2; assay: SYBR green I-based parasite growth inhibition assay, Dd2 strain; format: cell-based, Plasmodium falciparum
[5] = system: Malaria parasites (ring-stage parasitized erythrocytes); assay: Drug-combination (drug-drug interaction) studies, SYBR-Green I; format: cell-based, Plasmodium falciparum
Protocol: In view of the overlapping modes of action between the hybrids and some known antimalarial drugs in terms of targeted cellular processes, we investigated the interaction between these compounds at variable combination ratios. Malaria parasites were continuously cultured and synchronized as earlier described prior to the assay.
Briefly, two-fold drug dilutions were prepared using a variable potency ratio drug combination approach, starting at 5EC50A: 0EC50B to 0EC50A: 5EC50B in serum-free medium, where A and B represent the different partner molecules.
The test was run for 72 h and terminated when the untreated parasites were at the early trophozoite stage of the second cycle. Parasite viability was assessed by the SYBR-Green I fluorescence-based assay as earlier described. Dose-response curves and EC50 values of each combination and drug alone were obtained using GraphPad Prism v.5.0 and Microsoft Excel was used to calculate mean EC50 values and the standard error of the mean.

[6] = system: P. chabaudi-infected mice; assay: Peter's four-day suppressive test (chemosuppressive activity); format: in vivo, Swiss albino mice
Protocol: Following the encouraging in vitro antiplasmodial activities and cytotoxicity profiles reported above, as well as the ADMET properties of the primary and secondary hits identified in this study, studies were carried out to assess the in vivo efficacy of these compounds in laboratory mice. Chemosuppressive potentials were assessed using the Peter's four-day test whereas the ability of each compound to cure an established plasmodial infection was determined using the Rane's test. To assess the in vivo chemosuppressive potential of the compounds, groups of P. chabaudi-infected mice were treated by ip injection for 3 days following infection using fixed doses of 0.03, 0.3, 3, 10, or 30 mg/kg for each compound. The percent suppression of parasite growth in treated groups was calculated relative to the control group and the growth inhibition curves plotted.
Eight-week old male Swiss albino mice weighing approximately 23±3 g were housed in cages and maintained in a well-ventilated room under standard environmental conditions of temperature at 22-24° C., under a 12 h dark-light cycle, with food and water provided ad libitum.
The animals were allowed one week acclimation before commencement of the study. Three (3) mice were infected with stocked blood containing Plasmodium chabaudi parasites and used as donors. In brief, frozen blood containing the sulfadoxine/pyrimethamine resistant P. c. chabaudi (AS(50S/P) parasites was thawed and about 200 μL parasites were injected intra-peritoneally (i.p) into each of the three mice and parasitemia monitored through blood smear until a 20% threshold was reached. These infected animals then served as donors to the experimental animals. Ethical approval for the study was obtained from the University of Douala Institutional Review Board (N^oIEC-UD/1146/09/2017/A).
In vivo efficacies were conducted following a modification of the Peter's four-day suppressive test as previously described (Lee et al., 2014, Tarkang et al., 2014). Briefly, following parasite passage in donor mice, the mice were euthanized using diethyl ether and P. c. chabaudi infected blood was obtained by cardiac puncture and placed into heparinized tubes. The blood was then diluted with phosphate buffered saline (PBS) and immediately used to infect the experimental mice. Mice were randomly divided into seven (7) groups of 3 animals and each mouse was injected with 1×10^7 infected erythrocytes intraperitoneally (Day 0). The mice were kept for 24 hours to establish infection and Giemsa thin blood smears were prepared to quantify parasites (Day 1). Thereafter, groups 1, 2, 3, 4 and 5 were treated with compounds dissolved in 1×PBS, intraperitoneally at dosages of 30, 10, 3, 0.3 and 0.03 mg/kg body weight, respectively, while groups 6 and 7 were treated with vehicle or chloroquine at 10 mg/kg, respectively for three consecutive days (Day 1-Day 3). Twenty-four (24) and ninety-six (96) hours post-infection, thin blood smears were prepared from each animal with blood obtained from the tail vein, fixed in methanol and stained with 10% Giemsa.
Parasitemia was determined by light microscopy using a 100× objective lens and the following equation: […]
Average percentage chemosuppression was calculated as
Where A is mean parasitemia in negative control and B is mean parasitemia in test group

Which “intraparasitic hemoglobin content / accumulation” value [1] does the source give for `COc1cc2c(cc1OC)C1(NCC2)C(=O)Nc2ccc(Cl)cc21` (centres unmarked) [Compound 8b] here?
The value was “significantly higher; also recorded: accumulation of intra-parasitic hemoglobin”.

And the “dose-response curve within the tested drug concentration range” value ([2]; Pf 3D7, 0.078 μM to 10 μM)?
The value was “complete sigmoidal dose-response curve”.

What about the EC50 ([2]; Pf 3D7, 0.078 μM to 10 μM, listed as (±)-moxiquindole) of the same compound?
Its EC50 is 1850 nM.

What about the EC50 ([2]; Pf 3D7, 0.078 μM to 10 μM) of the same compound?
Its EC50 is < 2000 nM.

And the “parasite growth inhibition in primary assays” value ([2]; primary screening at 10 μM, Pf 3D7, 72 h)?
The value was ~97%.

And the CC50 ([3]; MTT)?
Its CC50 is > 100000 nM.

And the cell viability ([3]; up to 100 μM compound concentration, 48 h)?
Its cell viability is “no significant decrease in cell viability”.

And the cross-resistance index [4]?
The cross-resistance index was 0.935.

What about the EC50 ([4]; Pf Dd2) of the same compound?
The EC50 was 1730 nM.

And the EC50 ([4]; Pf Dd2, 0.078 μM to 10 μM)?
Its EC50 is 1730 nM.

What about the “combination index (CI)” value ([5]; in combination with artemisinin) of the same compound?
Its value is 1.440.

What about the “combination index (CI)” value ([5]; in combination with chloroquine) of the same compound?
The value was 1.478.

What about the suppression of parasitemia ([6]; 3.0 mg/kg ip) of the same compound?
Its suppression of parasitemia is 98%.

What about the “suppressive ED50” value ([6]; ip, 3 days, P. chabaudi-infected mice) of the same compound?
The value was 0.25 mg/kg.
